Reference: patent US20250179047A1, “5-[7-(3,4-DIHYDRO-1H-ISOQUINOLINE-2-CARBONYL)-1,2,3,4 TETRAHYDROISOQUINOLIN-6-YL]-1H-PYRROLE-3-CARBOXAMIDE DERIVATIVES, PHARMACEUTICAL COMPOSITIONS CONTAINING THEM AND THEIR USES AS PRO-APOPTOTIC AGENTS” (LES LABORATOIRES SERVIER, priority 2022, published 2025)

Legend:
BCL2 D111A = BCL2 D111A (Homo sapiens, UniProt P10415, D111A); assay: TR-FRET competitive binding assay, BCL2 D111A; settings: Ki determined from IC50, read-out: TR_FRET EKI_Bcl2 D111A
Procedure, shortened: (§1)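 Ki derived from IC50 (11-point dilution, 520/495 nm emission ratio) for displacing a fluorescein-labelled PUMA peptide (2 or 20 nM). Target was 0.5 nM E. coli-expressed Halo-tagged BCL2 (1-207) or BCLXL (2-196), terbium-labelled on Halo. Incubation 2 h at 23°C in pH 7.5 Hepes with 150 mM NaCl and 5% DMSO.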

KMS-12-PE Bcl-2 WT = assay: In vitro cytotoxicity CellTiter-Glo 48 h, KMS-12-PE Bcl-2 WT; type: cell-based; settings: Homo sapiens, KMS-12-PE, C50 = concentration needed to reach 50% of the cellular viability
Procedure, shortened: (§2)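 CTG luminescence read-out; C50 = concentration reaching 50% cellular viability. Cells: KMS-12-PE expressing Bcl-2 WT or G101V (lentiviral, TagRFP-sorted). 11-pt curve, 48 h, 37 °C/5% CO2.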

BCL2 D103Y = BCL2 D103Y (Homo sapiens, UniProt P10415, D103Y); assay: TR-FRET competitive binding assay, BCL2 D103Y; settings: Ki determined from IC50, read-out: TR_FRET EKI_Bcl2 D103Y
Procedure, shortened: as §1

BCL2 WT = BCL2 WT (Homo sapiens (Human), UniProt P10415); assay: TR-FRET competitive binding assay, BCL2 WT; settings: Ki determined from IC50, read-out: TR_FRET EKI_Bcl2 WT
Procedure, shortened: as §1

BCL2 F104I = BCL2 F104I (Homo sapiens, UniProt P10415, F104I); assay: TR-FRET competitive binding assay, BCL2 F104I; settings: Ki determined from IC50, read-out: TR_FRET EKI_Bcl2 F104I
Procedure, shortened: as §1

KMS-12-PE Bcl-2 G101V = assay: In vitro cytotoxicity CellTiter-Glo 48 h, KMS-12-PE Bcl-2 G101V; type: cell-based; settings: for Ratio (G101V/WT): C50 KMS-12-PE Bcl-2 G101V over C50 KMS-12-PE Bcl-2 WT; for IC50: Homo sapiens, KMS-12-PE, 48 h, CellTiter-Glo, C50 = concentration needed to reach 50% of the cellular viability
Procedure, shortened: as §2

BCLXL WT = BCLXL WT (Homo sapiens (Human), UniProt Q07817); assay: TR-FRET competitive binding assay, BCLXL WT; settings: for Ki: BCLXL WT, Ki determined from IC50, read-out: TR_FRET EKI BclxL; for TR_FRET EKI BCLxL/WT selectivty ratio: ratio Ki BCLxL / Ki BCL2 WT
Procedure, shortened: as §1

BCL2 G101V [1] = target: BCL2 G101V (Homo sapiens, UniProt P10415, G101V); assay: TR-FRET competitive binding assay, BCL2 G101V; settings: BCL2 G101V; Ki determined from IC50; read-out: TR_FRET EKI_Bcl2 G101V
Procedure, shortened: as §1

BCL2 G101V [2] = assay: TR-FRET competitive binding assay, BCL2 G101V; parameters: species or system human; settings: ratio Ki BCL2 G101V / Ki BCL2 WT
Procedure, shortened: as §1

BCLXL WT, sequence (Q07817 other isoform, or with tags, fused parts or gaps): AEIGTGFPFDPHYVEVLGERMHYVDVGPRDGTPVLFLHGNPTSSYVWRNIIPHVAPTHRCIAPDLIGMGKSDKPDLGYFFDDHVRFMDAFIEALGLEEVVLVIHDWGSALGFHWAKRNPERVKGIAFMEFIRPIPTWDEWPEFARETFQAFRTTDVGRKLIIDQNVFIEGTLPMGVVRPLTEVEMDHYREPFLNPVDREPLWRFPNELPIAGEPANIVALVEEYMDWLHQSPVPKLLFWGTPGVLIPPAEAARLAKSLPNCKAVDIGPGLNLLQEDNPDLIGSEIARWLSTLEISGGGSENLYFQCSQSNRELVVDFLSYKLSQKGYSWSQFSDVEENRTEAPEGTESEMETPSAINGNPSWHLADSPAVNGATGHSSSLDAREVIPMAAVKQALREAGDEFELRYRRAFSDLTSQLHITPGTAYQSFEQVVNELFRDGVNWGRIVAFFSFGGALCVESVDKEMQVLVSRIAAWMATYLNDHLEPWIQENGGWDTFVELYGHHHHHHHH

| SMILES | Ki (BCL2 D111A) | IC50 (KMS-12-PE Bcl-2 WT) | Ki (BCL2 D103Y) | Ki (BCL2 WT) | Ki (BCL2 F104I) | Ratio (G101V/WT) (KMS-12-PE Bcl-2 G101V) | IC50 (KMS-12-PE Bcl-2 G101V) | Ki (BCLXL WT) | TR_FRET EKI BCLxL/WT selectivty ratio (BCLXL WT) | Ki (BCL2 G101V [1]) | TR_FRET EKI G101V/WT selectivty ratio (BCL2 G101V [2]) |
| --- | --- | --- | --- | --- | --- | --- | --- | --- | --- | --- | --- |
| Cc1c(N(C(=O)c2cc(-c3cc4c(cc3C(=O)N3Cc5ccccc5C[C@H]3CN3CCC[C@@H](C)C3)CN(C(=O)Cc3ccc(OCCN5CCOCC5)cc3F)CC4)n(C)c2C)c2ccc(O)cc2)cc(C#N)n1C [Example 124, N-(5-cyano-1,2-dimethyl-1H-pyrrol-3-yl)-5-[2-(2-{2-fluoro-4-[2-(morpholin-4-yl)ethoxy]phenyl}acetyl)-7-[(3S)-3-{[(3R)-3-methylpiperidin-1-yl]methyl}-1,2,3,4-tetrahydroisoquinoline-2-carbonyl]-1,2,3,4-tetrahydroisoquinolin-6-yl]-N-(4-hydroxyphenyl)-1,2-dimethyl-1H-pyrrole-3-carboxamide] | 0.28 nM | 0.0041 µM | 0.58 nM | 0.12 nM | 0.34 nM | 5.62 | 0.0231 µM | 5.8 nM | 48.3 | 0.7 nM | 5.8 |
| Cc1c(N(C(=O)c2cc(-c3cc4c(cc3C(=O)N3Cc5ccccc5C[C@H]3CN3CCCC[C@@H]3C)CN(C(=O)Cc3ccc(OCCN5CCOCC5)cc3F)CC4)n(C)c2C)c2ccc(O)cc2)cc(C#N)n1C [Example 125, N-(5-cyano-1,2-dimethyl-1H-pyrrol-3-yl)-5-[2-(2-{2-fluoro-4-[2-(morpholin-4-yl)ethoxy]phenyl}acetyl)-7-[(3S)-3-{[(2S)-2-methylpiperidin-1-yl]methyl}-1,2,3,4-tetrahydroisoquinoline-2-carbonyl]-1,2,3,4-tetrahydroisoquinolin-6-yl]-N-(4-hydroxyphenyl)-1,2-dimethyl-1H-pyrrole-3-carboxamide] | 0.13 nM | 0.0036 µM | 0.19 nM | 0.07 nM | 0.17 nM | 4.94 | 0.0178 µM | 4.3 nM | 61.4 | 0.4 nM | 5.4 |
| Cc1c(N(C(=O)c2cc(-c3cc4c(cc3C(=O)N3Cc5ccccc5C[C@H]3CN3CCC5(CC3)CC5)CN(C(=O)Cc3ccc(OCCN5CCOCC5)cc3F)CC4)n(C)c2C)c2ccc(O)cc2)cc(C#N)n1C [Example 126, 5-{7-[(3S)-3-({6-azaspiro[2.5]octan-6-yl}methyl)-1,2,3,4-tetrahydroisoquinoline-2-carbonyl]-2-(2-{2-fluoro-4-[2-(morpholin-4-yl)ethoxy]phenyl}acetyl)-1,2,3,4-tetrahydroisoquinolin-6-yl}-N-(5-cyano-1,2-dimethyl-1H-pyrrol-3-yl)-N-(4-hydroxyphenyl)-1,2-dimethyl-1H-pyrrole-3-carboxamide] | 0.38 nM | 0.0048 µM | 0.37 nM | 0.12 nM | 0.49 nM | 6.34 | 0.0303 µM | 7.7 nM | 64.2 | 0.7 nM | 5.4 |
| Cc1c(N(C(=O)c2cc(-c3cc4c(cc3C(=O)N3Cc5ccccc5C[C@H]3CN3CCCCC3)CN(C(=O)Cc3ccc(OCCN(C)CCF)cc3F)CC4)n(C)c2C)c2ccc(O)cc2)cc(C#N)n1C [Example 134, N-(5-cyano-1,2-dimethyl-1H-pyrrol-3-yl)-5-{2-[2-(2-fluoro-4-{2-[(2-fluoroethyl)(methyl)amino]ethoxy}phenyl)acetyl]-7-[(3S)-3-[(piperidin-1-yl)methyl]-1,2,3,4-tetrahydroisoquinoline-2-carbonyl]-1,2,3,4-tetrahydroisoquinolin-6-yl}-N-(4-hydroxyphenyl)-1,2-dimethyl-1H-pyrrole-3-carboxamide] | 0.17 nM | 0.0058 µM | 0.18 nM | 0.06 nM | 0.33 nM | 4.6 | 0.0265 µM | 2.6 nM | 45.6 | 0.3 nM | 5.8 |
| Cc1c(N(C(=O)c2cc(-c3cc4c(cc3C(=O)N3Cc5ccccc5C[C@H]3CN3CCCCC3)CN(C(=O)Cc3ccc(OCCN5CCOCC5)cc3F)CC4)n3ccccc23)c2ccc(O)cc2)cc(C#N)n1C [Example 136, N-(5-cyano-1,2-dimethyl-pyrrol-3-yl)-3-[2-[2-[2-fluoro-4-(2-morpholinoethoxy)phenyl]acetyl]-7-[(3S)-3-(1-piperidylmethyl)-3,4-dihydro-1H-isoquinoline-2-carbonyl]-3,4-dihydro-1H-isoquinolin-6-yl]-N-(4-hydroxyphenyl)indolizine-1-carboxamide] | 0.35 nM | 0.0037 µM | 0.32 nM | 0.13 nM | 0.17 nM | 3.22 | 0.0118 µM | 2.3 nM | 17.7 | 0.6 nM | 4.2 |
| Cc1c(N(C(=O)c2cc(-c3cc4c(cc3C(=O)N3Cc5ccccc5C[C@H]3CN3CC5(CC5)C3)CN(C(=O)Cc3ccc(OCCN5CCOCC5)cc3F)CC4)n(C)c2C)c2ccc(O)cc2)cc(C#N)n1C [Example 145, 5-{7-[(3S)-3-({5-azaspiro[2.3]hexan-5-yl}methyl)-1,2,3,4-tetrahydroisoquinoline-2-carbonyl]-2-(2-{2-fluoro-4-[2-(morpholin-4-yl)ethoxy]phenyl}acetyl)-1,2,3,4-tetrahydroisoquinolin-6-yl}-N-(5-cyano-1,2-dimethyl-1H-pyrrol-3-yl)-N-(4-hydroxyphenyl)-1,2-dimethyl-1H-pyrrole-3-carboxamide] | 0.07 nM | 0.0295 µM | 0.11 nM | 0.03 nM | 0.14 nM | 5.2203 | 0.154 µM | 1.1 nM | 39.3 | 0.2 nM | 5.4 |
| Cc1c(N(C(=O)c2cc(-c3cc4c(cc3C(=O)N3Cc5ccccc5C[C@H]3CN3CCC(C)(C)C3)CN(C(=O)Cc3ccc(OCCN5CCOCC5)cc3F)CC4)n(C)c2C)c2ccc(O)cc2)cc(C#N)n1C [Example 146, N-(5-cyano-1,2-dimethylpyrrol-3-yl)-5-(7-{[(3S)-3-[(3,3-dimethylpyrrolidin-1-yl)methyl]-3,4-dihydro-1H-isoquinolin-2-yl]carbonyl}-2-(2-{2-fluoro-4-[2-(morpholin-4-yl)ethoxy]phenyl}acetyl)-3,4-dihydro-1H-isoquinolin-6-yl)-N-(4-hydroxyphenyl)-1,2-dimethylpyrrole-3-carboxamide] | 0.15 nM | 0.006 µM | 0.12 nM | 0.04 nM | 0.27 nM | 5.8167 | 0.0349 µM | 3.5 nM | 81.4 | 0.3 nM | 7.2 |
| Cc1c(N(C(=O)c2cc(-c3cc4c(cc3C(=O)N3Cc5ccccc5C[C@H]3CN3CCCCC3)CN(C(=O)Cc3ccc(OCCN5CCOCC5(C)C)cc3)CC4)n(C)c2C)c2ccc(O)cc2)cc(C#N)n1C [Example 148, N-(5-cyano-1,2-dimethylpyrrol-3-yl)-5-[2-(2-{4-[2-(3,3-dimethylmorpholin-4-yl)ethoxy]phenyl}acetyl)-7-{[(3S)-3-(piperidin-1-ylmethyl)-3,4-dihydro-1H-isoquinolin-2-yl]carbonyl}-3,4-dihydro-1H-isoquinolin-6-yl]-N-(4-hydroxyphenyl)-1,2-dimethylpyrrole-3-carboxamide] | 0.15 nM | 0.007 µM | 0.18 nM | 0.06 nM | 0.29 nM | 4.9286 | 0.0345 µM | 1.5 nM | 25.0 | 0.3 nM | 4.2 |
